This note sets out measurements from US20090181989A1, “Purine Compunds as HSP90 Protein Inhibitors for the Treatment of Cancer” (VERNALIS ( R & D) LTD., priority 2005, published 2009).

SMILES strings stand for the structures.

In the experiment the target is T1, human full-length HSP90 (Homo sapiens, UniProt P08238).
T1 construct: E. coli expressed human full-length HSP90 protein; made in house; host or cells: E. coli
T1 sequence (P08238 whole entry): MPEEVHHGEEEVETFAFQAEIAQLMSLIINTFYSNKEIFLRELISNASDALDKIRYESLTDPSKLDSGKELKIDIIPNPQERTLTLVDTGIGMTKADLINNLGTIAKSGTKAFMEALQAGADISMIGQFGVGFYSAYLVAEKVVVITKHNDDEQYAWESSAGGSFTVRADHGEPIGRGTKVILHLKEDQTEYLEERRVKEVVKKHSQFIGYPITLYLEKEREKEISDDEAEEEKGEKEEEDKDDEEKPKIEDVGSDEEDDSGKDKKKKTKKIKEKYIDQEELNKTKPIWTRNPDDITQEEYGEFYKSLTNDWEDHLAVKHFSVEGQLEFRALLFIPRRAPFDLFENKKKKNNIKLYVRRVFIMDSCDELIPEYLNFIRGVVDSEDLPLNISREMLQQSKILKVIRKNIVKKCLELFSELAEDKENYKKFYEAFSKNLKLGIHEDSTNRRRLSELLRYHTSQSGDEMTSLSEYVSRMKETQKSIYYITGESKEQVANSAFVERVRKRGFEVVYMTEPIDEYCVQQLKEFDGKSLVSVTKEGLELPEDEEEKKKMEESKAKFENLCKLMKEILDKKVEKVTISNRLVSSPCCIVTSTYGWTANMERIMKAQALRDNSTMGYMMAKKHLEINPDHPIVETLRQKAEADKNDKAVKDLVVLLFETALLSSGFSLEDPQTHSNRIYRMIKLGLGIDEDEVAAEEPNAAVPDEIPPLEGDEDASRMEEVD
Description: Fluorescence polarization assay (competitive displacement of fluorescein-labelled probe VER00051001-FAM from HSP90). The conditions noted are these: activity range in the fluorescence polarization assay; E. coli expressed human full-length HSP90 200 nM, probe 80 nM. In kind it is binding. An excerpt:
Fluorescence Polarization Assay
Fluorescence polarization {also known as fluorescence anisotropy} measures the rotation of a fluorescing species in solution, where the larger molecule the more polarized the fluorescence emission. When the fluorophore is excited with polarized light, the emitted light is also polarized. The molecular size is proportional to the polarization of the fluorescence emission.
The fluoroscein-labelled probe-VER00051001-FAM-
binds to HSP90 {full-length human, full-length yeast or N-terminal domain HSP90} and the anisotropy {rotation of the probe:protein complex} is measured.
Test compound is added to the assay plate, left to equilibrate and the anisotropy measured again. Any change in anisotropy is due to competitive binding of compound to HSP90, thereby releasing probe.
Chemicals are of the highest purity commercially available and all aqueous solutions are made up in AR water. • 1) Costar 96-well black assay plate #3915 • 2) Assay buffer of (a) 100 mM Tris pH7.4; (b) 20 mM KCl; (c) 6 mM MgCl2. Stored at room temperature. • 3) BSA (bovine serum albumen) 10 mg/ml (New England Biolabs # B9001S) • 4) 20 mM probe in 100% DMSO stock concentration. Stored in the dark at RT. Working concentration is 200 nM diluted in AR water and stored at 4° C. Final concentration in assay 80 nM. • 5) E. coli expressed human full-length HSP90 protein, purified >95% (see, e.g., Panaretou et al., 1998) and stored in 50 μL aliquots at −80° C.
• 1) Add 100 μl 1× buffer to wells 11A and 12A(═FPBLNK) • 2) Prepare assay mix—all reagents are kept on ice with a lid on the bucket as the probe is light-sensitive.
• 3) Aliquot 100 μl assay mix to all other wells • 4) Seal plate and leave in dark at room temp for 20 minutes to equilibrate Compound Dilution Plate—1×3 dilution series • 1) In a clear 96-well v-bottom plate—{# VWR 007/008/257} add 10 μl 100% DMSO to wells B1 to H11 • 2) To wells A1 to A11 add 17.5 μl 100% DMSO • 3) Add 2.5 μl cpd to A1. This gives 2.5 mM {50×} stock cpd—assuming cpds 20 mM. • 4) Repeat for wells A2 to A10. Control in columns 11 and 12. • 5) Transfer 5 μl from row A to row B- not column 12. Mix well. • 6) Transfer 5 μl from row B to row C. […] In column 11 {provides standard curve} only add compound B11-H11. Add 2 μl of 100 mM standard cpd to wells B12-H12 {is positive control} • 13) The Z′ factor is calculated from zero controls and positive wells. It typically gives a value of 0.7-0.9.
The compounds tested in the above assay were assigned to one of two activity ranges, namely A=<10 μM; B=>10 μM, and those assignments are reported above.
(In general: In fluorescence polarisation assays a small probe gives low polarisation when free and higher when bound to something large.)
Turning to `CSc1nc(-c2ccc3ccccc3c2)c2nc[nH]c2n1` [Example 17], the IC50 – broadly, the concentration that inhibits the measured activity by half – is more than 10 µM.

The compound `Cc1cc(F)ccc1-c1nc(Cl)nc2[nH]cnc12` [Example 10] yielded an IC50 of less than 10 µM.

`Cc1cc(Cl)ccc1-c1nc(Cl)nc2[nH]cnc12` [Example 9] registered an IC50 of less than 10 µM.

Consider `Clc1nc(-c2ccc3c(c2)CCO3)c2nc[nH]c2n1` [Example 5], for which the IC50 was more than 10 µM.

In turn, `CSc1nc(-c2ccc(Cl)cc2C)c2nc[nH]c2n1` [Example 19] displayed an IC50 of less than 10 µM.

As to `O=C1CCCN1CCOc1cc(-c2nc(Cl)nc3[nH]cnc23)c(Cl)cc1Cl` [Example 37, 1-{2-[2,4-Dichloro-5-(2-chloro-9H-purin-6-yl)-phenoxy]-ethyl}-pyrrolidin-2-one], the IC50 is less than 10 µM.

In turn, `CCOC(=O)CSc1nc(-c2ccc(Cl)cc2Cl)c2nc[nH]c2n1` [Example 20] came in with an IC50 of less than 10 µM.

`CSc1nc(-c2ccc(Cl)cc2Cl)c2nc[nH]c2n1` [Example 14, 6-(2,4-dichloro-phenyl)-2-methylsulfanyl-9H-purine] returned a concentration for half-maximal inhibition (IC50) of less than 10 µM.

`Clc1nc(-c2ccccc2)c2nc[nH]c2n1` [Example 11]: the IC50 was less than 10 µM.

The compound `CCNC(=O)CSc1nc(-c2ccc(Cl)cc2Cl)c2nc[nH]c2n1` [Example 16] gave an IC50 of less than 10 µM.

`CSc1nc(-c2cc(OCc3ccccc3)c(Cl)cc2Cl)c2nc[nH]c2n1` [Example 12, 6-(5-benzyloxy-2,4-dichloro-phenyl)-2-methylsulfanyl-9H-purine] had an IC50 of less than 10 µM.

As for `COc1nc(-c2ccc(Cl)cc2Cl)c2nc[nH]c2n1` [Example 23, 6-(2,4-Dichloro-phenyl)-2-methoxy-9H-purine], the IC50 is less than 10 µM.

Take `Cc1ccc(-c2nc(Cl)nc3[nH]cnc23)c(C)c1` [Example 3]: the IC50 is less than 10 µM.

Regarding `C[S+]([O-])c1nc(-c2ccc(Cl)cc2Cl)c2nc[nH]c2n1` (stereo not drawn) [Example 26, 6-(2,4-Dichloro-phenyl)-2-methanesulfinyl-7H-purine], the IC50 was more than 10 µM.

Compound `CSc1nc(-c2ccc(C)cc2C)c2nc(Cl)[nH]c2n1` [Example 31, 8-Chloro-6-(2,4-dimethyl-phenyl)-2-methylsulfanyl-9H-purine] yielded an IC50 of more than 10 µM.

As for `CCN(CC)CCOc1cc(-c2nc(Cl)nc3[nH]cnc23)c(Cl)cc1Cl` [Example 35, {2-[2,4-Dichloro-5-(2-chloro-9H-purin-6-yl)-phenoxy]-ethyl}-diethyl-amine], the IC50 was less than 10 µM.

For the compound `Cc1ccc(-c2nc(Cl)nc3[nH]cnc23)c2ccccc12` [Example 4], the IC50 is more than 10 µM.

In turn, `Clc1ccc(-c2nc(Cl)nc3[nH]cnc23)c(Cl)c1` [Example 1, 2-Chloro-6-(2,4-dichloro-phenyl)-9H-purine] returned an IC50 of less than 10 µM.

Consider `Clc1nc(-c2cc(OCCN3CCCC3)c(Cl)cc2Cl)c2nc[nH]c2n1` [Example 36, 2-Chloro-6-[2,4-dichloro-5-(2-pyrrolidin-1-yl-ethoxy)-phenyl]-9H-purine], for which the concentration for half-maximal inhibition (IC50) is less than 10 µM.

As to `Clc1nc(-c2cc(OCc3ccccc3)c(Cl)cc2Cl)c2nc[nH]c2n1` [Example 2, 6-(5-Benzyloxy-2,4-dichloro-phenyl)-2-chloro-9H-purine], the IC50 is less than 10 µM.

`Clc1ccc(-c2nc(Sc3nc[nH]n3)nc3[nH]cnc23)c(Cl)c1` [Example 18] came in with an IC50 of less than 10 µM.

In turn, `CCN(CC)Cc1ccc(COc2cc(-c3nc(Cl)nc4[nH]cnc34)c(Cl)cc2Cl)cc1` [Example 24, {4-[2,4-Dichloro-5-(2-chloro-9H-purin-6-yl)-phenoxymethyl]-benzyl}-diethyl-amine] yielded an IC50 of less than 10 µM.

`CCN(CC)CCOc1cc(-c2nc(Cl)nc3[nH]cnc23)c(Cl)cc1C` [Example 28, {2-[4-Chloro-5-(2-chloro-9H-purin-6-yl)-2-methyl-phenoxy]-ethyl}-diethyl-amine] displayed a half-inhibitory concentration (IC50) of less than 10 µM.

`Cc1cc(Cl)c(-c2nc(Cl)nc3[nH]cnc23)cc1O` [Example 27, 4-Chloro-5-(2-chloro-9H-puriny-6-yl)-2-methyl-phenol] returned an IC50 of less than 10 µM.

With `CSc1nc(-c2ccc(C)cc2C)c2nc(C)[nH]c2n1` [Example 32, 6-(2,4-Dimethyl-phenyl)-8-methyl-2-methylsulfanyl-9H-purine], the IC50 was more than 10 µM.

As to `CCNC(=O)C(C)(C)Sc1nc(-c2ccc(Cl)cc2Cl)c2nc[nH]c2n1` [Example 21], the IC50 is more than 10 µM.

`CN(C)CCCOc1cc(-c2nc(Cl)nc3[nH]cnc23)c(Cl)cc1Cl` [Example 34, {3-[2,4-Dichloro-5-(2-chloro-9H-purin-6-yl)-phenoxy]-propyl}-dimethyl-amine] displayed an IC50 of less than 10 µM.

Compound `CSc1nc(-c2ccc(C#N)cc2)c2nc[nH]c2n1` [Example 13, 6-(4-cyano-phenyl)-2-methylsulfanyl-9H-purine] displayed a concentration for half-maximal inhibition (IC50) of less than 10 µM.

With `N#Cc1ccc(-c2nc(Cl)nc3[nH]cnc23)cc1` [Example 6], the IC50 is less than 10 µM.

`CS(=O)(=O)c1nc(-c2ccc(Cl)cc2Cl)c2nc[nH]c2n1` [Example 25, 6-(2,4-Dichloro-phenyl)-2-methanesulfonyl-7H-purine] yielded an IC50 of more than 10 µM.

Turning to `CCNC(=O)CSc1nc(-c2cc(OCCN(CC)CC)c(C)cc2Cl)c2nc[nH]c2n1` [Example 30, 2-{6-[2-Chloro-5-(2-diethlamino-ethoxy)-4-methyl-phenyl]-9H-purin-2-ylsulfanyl}-N-ethyl Acetamide], the IC50 is less than 10 µM.

`CN(C)CCSc1nc(-c2ccc(Cl)cc2Cl)c2nc[nH]c2n1` [Example 22] registered a 50% inhibitory concentration (IC50) of less than 10 µM.

`Cc1ccc(-c2nc(Cl)nc3[nH]cnc23)c(Cl)c1` [Example 8] displayed an IC50 of less than 10 µM.

In the case of `CCN(CC)CCOc1cc(-c2nc(SC)nc3[nH]cnc23)c(Cl)cc1C` [Example 29, {2-[4-Chloro-2-methyl-5-(2-methylsulfanyl-9H-purin-6-yl)-phenoxy]-ethyl}-diethyl-amine], the 50% inhibitory concentration (IC50) was less than 10 µM.

In the case of `CSc1nc(-c2ccc(C)cc2C)c2nc(C#N)[nH]c2n1` [Example 33, 6-(2,4-Dimethyl-phenyl)-2-methylsulfanyl-9H-purine-8-carbonitrile], the IC50 was more than 10 µM.

For `CSc1nc(-c2ccc(F)cc2C)c2nc[nH]c2n1` [Example 15, 6-(2-methyl-4-fluoro-phenyl)-2-methylsulfanyl-9H-purine], the IC50 is less than 10 µM.
